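Cultured in 96-well plates, cells were exposed to test compound for 48 hours across five concentrations. TGI is the concentration that stops growth completely.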
Legend:
Experiment in all cases: inhibition of tumour cell growth, NCI panel, 48 h
KM20L2 colon = tested on: KM20L2 colon
OVCAR-8 ovarian = tested on: OVCAR-8 ovarian
DMS 273 small cell lung = tested on: DMS 273 small cell lung
UACC-62 melanoma = tested on: UACC-62 melanoma
M19-MEL melanoma = tested on: M19-MEL melanoma
HCT-15 colon = tested on: HCT-15 colon
HOP-62 NSCLC = tested on: HOP-62 NSCLC
U251 CNS = tested on: U251 CNS
CAKI-1 renal = tested on: CAKI-1 renal
M14 melanoma = tested on: M14 melanoma
TK-10 renal = tested on: TK-10 renal
MDA-MB-231 breast = tested on: MDA-MB-231 breast

Row | Compound | TGI (KM20L2 colon) | TGI (OVCAR-8 ovarian) | TGI (DMS 273 small cell lung) | TGI (UACC-62 melanoma) | TGI (M19-MEL melanoma) | TGI (HCT-15 colon) | TGI (HOP-62 NSCLC) | TGI (U251 CNS) | TGI (CAKI-1 renal) | TGI (M14 melanoma) | TGI (TK-10 renal) | TGI (MDA-MB-231 breast)
1 | C#CC[C@@]12CC(=O)C[C@@H]1CCC1(C2)OCCO1 (tested in a mixture with another compound) | > 100 µM | > 100 µM | > 100 µM | > 100 µM | > 100 µM | > 100 µM | > 100 µM | > 100 µM | – | – | – | –
2 | O=C(CCN1CCOCC1)/C(=C/c1ccccc1)c1ccccc1 | 15.1 µM | 4.1 µM | 21.4 µM | 7.52 µM | 14.1 µM | 5.98 µM | 45.8 µM | 12.9 µM | 16.9 µM | – | – | –
3 | CCOC(=O)C1CC(C(=O)c2ccccc2)N2c3ccccc3-c3ccccc3C12 (stereo unspecified) | – | > 100 µM | – | > 100 µM | – | > 100 µM | > 100 µM | > 100 µM | > 100 µM | 74.2 µM | > 100 µM | > 100 µM
4 | CSC(SC)=C(C#N)C(=O)Nc1cccc(Cl)c1 | – | > 100 µM | – | > 100 µM | – | > 100 µM | > 100 µM | > 100 µM | > 100 µM | > 100 µM | > 100 µM | > 100 µM
5 | COC(=O)c1ccccc1C1CN=NC12Cc1c(ccc3c1CCC3)C2=O (stereo unspecified) | – | > 100 µM | – | > 100 µM | – | > 100 µM | > 100 µM | > 100 µM | > 100 µM | > 100 µM | > 100 µM | > 100 µM
6 | CCCCc1ccc(Nc2ncc3ncn(COCCO)c3n2)cc1 | – | > 100 µM | – | 77.7 µM | – | > 100 µM | > 100 µM | > 100 µM | > 100 µM | 53 µM | > 100 µM | 57.4 µM
7 | CC(C(=O)OCc1ccccc1)N(Cc1ccccc1)Cc1ccccc1 (stereo unspecified) | > 100 µM | > 100 µM | > 100 µM | > 100 µM | – | > 100 µM | > 100 µM | > 100 µM | > 100 µM | > 100 µM | > 100 µM | –
8 | CCOC(=O)/C(C(N)=O)=C(\O)C(=O)/C(Br)=C(\O)c1ccccc1 | – | 39.5 µM | – | 33.3 µM | – | 39.8 µM | 41.5 µM | 35.3 µM | 24.6 µM | 29.3 µM | 33.2 µM | 34.2 µM
9 | COC(=O)C1=C(OC(=O)/C(=C/c2ccccc2)c2ccc(OC)cc2)C(C(=O)OC)[C@@]2(O)[C@@H](C(=O)OC)[C@H](C)C[C@@H]1[C@@H]2C(=O)OC (stereo partly specified) | – | > 100 µM | – | > 100 µM | – | > 100 µM | > 100 µM | > 100 µM | > 100 µM | > 100 µM | > 100 µM | 90.8 µM
10 | CC(C)(C)OC(=O)[C@@H]1CCC(=O)N1C1(c2ccccc2)c2ccccc2-c2ccccc21 | – | > 100 µM | – | > 100 µM | – | > 100 µM | > 100 µM | 73.8 µM | > 100 µM | > 100 µM | > 100 µM | 86.1 µM
11 | C#C[C@]1(O)CC[C@H]2[C@@H]3CCC4=C/C(=N/NC(=O)c5cccc6c(=O)c7ccccc7[nH]c56)CCC4[C@H]3CC[C@@]21C (stereo partly specified) | – | > 100 µM | – | > 100 µM | – | > 100 µM | > 100 µM | > 100 µM | > 100 µM | > 100 µM | > 100 µM | > 100 µM
12 | O=C(O)CCC(=O)OCN1C(=O)C2C3C=CC(C2C1=O)C1C2C(=O)N(COC(=O)CCC(=O)O)C(=O)C2C31 (stereo unspecified) | > 100 µM | > 100 µM | > 58.2 µM | > 100 µM | > 100 µM | > 57 µM | > 100 µM | > 100 µM | > 100 µM | > 100 µM | > 100 µM | –
13 | O=C(O)CSc1ccccc1C(=O)O | – | > 100 µM | – | > 100 µM | – | > 100 µM | > 100 µM | > 100 µM | > 100 µM | > 100 µM | 53.5 µM | > 100 µM
14 | COC(=O)[C@H](Cc1c[nH]c2ccccc12)NP(=O)(OCCC#N)OCC1OC(n2cc(C)c(=O)[nH]c2=O)CC1N=[N+]=[N-] (stereo partly specified) | – | > 100 µM | – | > 100 µM | – | > 100 µM | > 100 µM | > 100 µM | > 100 µM | > 100 µM | > 100 µM | > 100 µM
15 | N#Cc1nc2cc(Cl)ccc2nc1N1CCN(c2ccc([N+](=O)[O-])cc2)CC1 | – | > 100 µM | – | > 100 µM | – | > 100 µM | > 100 µM | > 100 µM | > 100 µM | > 100 µM | > 100 µM | > 100 µM
16 | COC(C/C(=C/CO[Si](C(C)C)(C(C)C)C(C)C)C(=O)N(COCC[Si](C)(C)C)c1ccccc1I)OC | – | > 100 µM | – | 50.7 µM | – | > 100 µM | > 100 µM | 94.8 µM | > 100 µM | > 100 µM | > 100 µM | > 100 µM
